Measured values from patent US11312716B2, “9H-pyrrolo-dipyridine derivatives” (UCB Biopharma SRL, priority 2015, dated 2022).

Assays:
[1] = Rat brain free fraction (Fu) measurement by equilibrium dialysis; conditions: male, Sprague-Dawley, brain homogenate (25% w/v in PBS), pH 7.4
rat MAO-A enzyme = rat MAO-A enzyme (Rattus norvegicus (Rat), UniProt P21396); assay: Rat MAO-A binding, competition for [3H]Ro 41-1049 in rat cerebral cortex; conditions: for inhibition at 0.01 µM: 10 nM [3H]Ro 41-1049, read-out: Rat MAO-A Binding INHIB 10 nM; for inhibition at 0.1 µM: 10 nM [3H]Ro 41-1049, read-out: Rat MAO-A Binding INHIB 100 nM
Procedure: Compound selectivity for Tau protein was assessed as compared to a broad panel of receptors, enzymes and ion channels. Selectivity profiling of 10 μM compounds against a panel of 81 targets (n=1 with data in duplicate) was performed. Compounds affinity for rat MAO-A enzyme was assessed in rat cerebral cortex by competition experiment for 10 nM [^3H]Ro 41-1049 and increasing concentrations of test compounds. Compounds affinity for human MAO-A enzyme (1 μg/assay, Sigma-Aldrich, Diegem, Belgium) was assessed by saturation binding experiment performed as described above with [^3H]compounds.

[2] = brain homogenate

rat MAO-A enzyme, sequence (P21396 whole entry): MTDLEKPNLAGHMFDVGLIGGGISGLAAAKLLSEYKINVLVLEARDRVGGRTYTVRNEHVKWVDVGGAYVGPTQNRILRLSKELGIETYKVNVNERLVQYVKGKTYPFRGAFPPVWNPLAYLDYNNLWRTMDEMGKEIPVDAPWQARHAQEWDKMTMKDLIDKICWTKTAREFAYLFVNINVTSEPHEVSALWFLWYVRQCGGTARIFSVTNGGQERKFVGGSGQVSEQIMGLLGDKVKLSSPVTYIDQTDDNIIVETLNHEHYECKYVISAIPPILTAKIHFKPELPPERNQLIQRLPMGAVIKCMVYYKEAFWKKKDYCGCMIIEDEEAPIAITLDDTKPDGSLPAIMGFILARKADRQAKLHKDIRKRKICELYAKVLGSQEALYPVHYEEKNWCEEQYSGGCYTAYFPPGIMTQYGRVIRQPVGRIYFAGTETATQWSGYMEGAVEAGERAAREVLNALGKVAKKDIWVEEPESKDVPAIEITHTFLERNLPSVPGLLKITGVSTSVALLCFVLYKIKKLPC

Row | fraction unbound at 4 h, 1 μM [1] | inhibition at 0.01 µM (rat MAO-A enzyme; 10 nM test compound) [%] | inhibition at 0.1 µM (rat MAO-A enzyme; 100 nM test compound) [%] | Rat MAO-A Binding INHIB 10 nM (rat MAO-A enzyme; 10 nM test compound, 10 nM [3H]Ro 41-1049) [%] | Rat MAO-A Binding INHIB 100 nM (rat MAO-A enzyme; 100 nM test compound, 10 nM [3H]Ro 41-1049) [%] | Fu Rat Brain [2] [%] | Compound
1 | 0.009 |  |  |  |  |  | COc1cc(-c2ccc3c(n2)[nH]c2ccncc23)ccn1 [Example 2, 2-(2-methoxypyridin-4-yl)-9H-pyrrolo[2,3-b:4,5-c′]dipyridine]
2 | 0.006 | 8 | 39 |  |  |  | COc1ccc(-c2ccc3c(n2)[nH]c2ccncc23)cn1 [Example 5, 2-(6-methoxypyridin-3-yl)-9H-pyrrolo[2,3-b:4,5-c′]dipyridine]
3 | 0.005 |  |  |  |  |  | COc1ncc(-c2ccc3c(n2)[nH]c2ccncc23)cc1F [Example 7, 2-(5-fluoro-6-methoxypyridin-3-yl)-9H-pyrrolo[2,3-b:4,5-c′]dipyridine]
4 | 0.036 | -5 | 7 |  |  |  | c1cc2[nH]c3nc(-c4cn[nH]c4)ccc3c2cn1 [Example 9, 2-(1H-pyrazol-4-yl)-9H-pyrrolo[2,3-b:4,5-c′]dipyridine]
5 | 0.028 | -12 | -7 |  |  |  | CNC(=O)c1ccc(-c2ccc3c(n2)[nH]c2ccncc23)cn1 [Example 11, N-methyl-5-(9H-pyrrolo[2,3-b:4,5-c′]dipyridin-2-yl)pyridine-2-carboxamide]
6 | 0.019 |  |  |  |  |  | c1cc(N2CCN(c3ccc4c(n3)[nH]c3ccncc34)CC2)ccn1 [Example 14, 2-(4-(pyridin-4-yl)piperazin-1-yl)-9H-pyrrolo[2,3-b:4,5-c′]dipyridine]
7 | 0.005 |  |  |  |  |  | c1cc2[nH]c3nc(-c4ccc(N5CCOCC5)nc4)ccc3c2cn1 [Example 21, 4-(5-(9H-pyrrolo[2,3-b:4,5-c′]dipyridin-2-yl)pyridin-2-yl)morpholine]
8 | 0.005 |  |  |  |  |  | CNc1ccc(C(=O)Nc2ccc3c(n2)[nH]c2ccncc23)cn1 [Example 35, 6-(methylamino)-N-(9H-pyrrolo[2,3-b:4,5-c′]dipyridin-2-yl)nicotinamide]
9 | 0.005 |  |  |  |  |  | COc1cc2[nH]c3nc(-c4ccc(F)nc4)ccc3c2cn1 [Example 36, 2-(6-fluoropyridin-3-yl)-7-methoxy-9H-pyrrolo[2,3-b:4,5-c′]dipyridine]
10 |  | 2 | 9 |  |  |  | CN(C)c1cc2[nH]c3nc(-c4cnn(C)c4)ccc3c2cn1 [Example 44, N,N-dimethyl-2-(1-methyl-1H-pyrazol-4-yl)-9H-pyrrolo[2,3-b:4,5-c′]dipyridin-7-amine]
11 | 0.011 |  |  |  |  |  | Cc1cc2[nH]c3nc(-c4ccc(F)nc4)ccc3c2cn1 [Example 45, 2-(6-fluoropyridin-3-yl)-7-methyl-9H-pyrrolo[2,3-b:4,5-c′]dipyridine]

Further lines, the compound ahead of its results:

Row | Compound | fraction unbound at 4 h, 1 μM [1] | inhibition at 0.01 µM (rat MAO-A enzyme; 10 nM test compound) [%] | inhibition at 0.1 µM (rat MAO-A enzyme; 100 nM test compound) [%] | Rat MAO-A Binding INHIB 10 nM (rat MAO-A enzyme; 10 nM test compound, 10 nM [3H]Ro 41-1049) [%] | Rat MAO-A Binding INHIB 100 nM (rat MAO-A enzyme; 100 nM test compound, 10 nM [3H]Ro 41-1049) [%] | Fu Rat Brain [2] [%]
12 | Cn1cc(-c2ccc3c(n2)[nH]c2ccncc23)cn1 [Example 4, 2-(1-methyl-1H-pyrazol-4-yl)-9H-pyrrolo[2,3-b:4,5-c′]dipyridine] | 0.075 | 21 | 50 |  |  | 
13 | Oc1ccc(-c2ccc3c(n2)[nH]c2ccncc23)cn1 [Example 6, 5-(9H-pyrrolo[2,3-b:4,5-c′]dipyridin-2-yl)pyridin-2-ol] | 0.098 |  |  |  |  | 
14 | c1cc2[nH]c3nc(-c4cnc(N5CCOCC5)nc4)ccc3c2cn1 [Example 10, 4-(5-(9H-pyrrolo[2,3-b:4,5-c′]dipyridin-2-yl)pyrimidin-2-yl)morpholine] | 0.011 |  |  |  |  | 
15 | Nc1ncc(-c2ccc3c(n2)[nH]c2ccncc23)cc1F [Example 12, 3-fluoro-5-(9H-pyrrolo[2,3-b:4,5-c′]dipyridin-2-yl)pyridin-2-amine] | 0.005 | 8 | 13 |  |  | 
16 | c1cnc(N2CCN(c3ccc4c(n3)[nH]c3ccncc34)CC2)nc1 [Example 13, 2-(4-(pyrimidin-2-yl)piperazin-1-yl)-9H-pyrrolo[2,3-b:4,5-c′]dipyridine] | 0.011 |  |  |  |  | 
17 | c1cc2[nH]c3nc(-c4ccn[nH]4)ccc3c2cn1 [Example 15, 2-(1H-pyrazol-3-yl)-9H-pyrrolo[2,3-b:4,5-c′]dipyridine] | 0.056 |  |  |  |  | 
18 | COCCNc1ncc(-c2ccc3c(n2)[nH]c2ccncc23)cn1 [Example 22, N-(2-methoxyethyl)-5-(9H-pyrrolo[2,3-b:4,5-c′]dipyridin-2-yl)pyrimidin-2-amine] |  | 8 | 15 |  |  | 
19 | Cc1cc(-c2ccc3c(n2)[nH]c2ccncc23)n[nH]1 [Example 24, 2-(5-methyl-1H-pyrazol-3-yl)-9H-pyrrolo[2,3-b:4,5-c′]dipyridine] | 0.02 | 7 | 9 |  |  | 
20 | FCCn1cc(-c2ccc3c(n2)[nH]c2ccncc23)cn1 [Example 25, 2-[1-(2-fluoroethyl)-1H-pyrazol-4-yl]-9H-pyrrolo[2,3-b: 4,5-c′]dipyridine] | 0.087 | 13 | 2 |  |  | 
21 | O=C(NCCF)c1ccc(-c2ccc3c(n2)[nH]c2ccncc23)cn1 [Example 29, N-(2-fluoroethyl)-5-(9H-pyrrolo[2,3-b:4,5-c′]dipyridin-2-yl)picolinamide] |  | 8 | 23 |  |  | 
22 | COCCNC(=O)c1ccc(-c2ccc3c(n2)[nH]c2ccncc23)cn1 [Example 30, N-(2-methoxyethyl)-5-(9H-pyrrolo[2,3-b:4,5-c′]dipyridin-2-yl)picolinamide] |  | 2 | 9 |  |  | 
23 | COc1cnn(-c2ccc3c(n2)[nH]c2ccncc23)c1 [Example 31, 2-(4-methoxy-1H-pyrazol-1-yl)-9H-pyrrolo[2,3-b:4,5-c′]dipyridine] | 0.007 | 16 | 39 |  |  | 
24 | c1cc2[nH]c3nc(-c4cnc(N5CCOCC5)s4)ccc3c2cn1 [Example 32, 4-(5-(9H-pyrrolo[2,3-b:4,5-c′]dipyridin-2-yl)thiazol-2-yl)morpholine] | 0.005 | 7 | 46 |  |  | 
25 | CNC(=O)c1ccc(-c2ccc3c(n2)[nH]c2cc(C)ncc23)cn1 [Example 46, N-methyl-5-(7-methyl-9H-pyrrolo[2,3-b:4,5-c′]dipyridin-2-yl)picolinamide] |  | 11 | 12 |  |  | 
26 | Cc1cc2[nH]c3nc(-c4cnn(C)c4)ccc3c2cn1 [Example 47, 7-methyl-2-(1-methyl-1H-pyrazol-4-yl)-9H-pyrrolo[2,3-b: 4,5-c′]dipyridine] | 0.028 | -1 | 10 |  |  | 
27 | CNC(=O)c1ccc(-c2ccc3c(n2)[nH]c2cc(COC)ncc23)cn1 [Example 49, 5-(7-(methoxymethyl)-9H-pyrrolo[2,3-b:4,5-c′]dipyridin-2-yl)-N-methylpicolinamide] |  | -9 | -4 |  |  | 
28 | COCc1cc2[nH]c3nc(-c4cnn(C)c4)ccc3c2cn1 [Example 50, 7-(methoxymethyl)-2-(1-methyl-1H-pyrazol-4-yl)-9H-pyrrolo[2,3-b: 4,5-c′]dipyridine] | 0.04 | 1 | 7 |  |  | 
29 | Cn1cc(-c2ccc3c(n2)[nH]c2cnccc23)cn1 [Example 51, 2-(1-methyl-1H-pyrazol-4-yl)-9H-pyrrolo[2,3-b:5,4-c′]dipyridine] | 0.045 | 3 | 6 |  |  | 
30 | c1cc2c(cn1)[nH]c1nc(-c3cn[nH]c3)ccc12 [Example 52, 2-(1H-pyrazol-4-yl)-9H-pyrrolo[2,3-b:5,4-c′]dipyridine] | 0.026 |  |  |  |  | 
31 | CNC(=O)c1ccc(-c2ccc3c(n2)[nH]c2cnccc23)cn1 [Example 53, N-methyl-5-(9H-pyrrolo[2,3-b:5,4-c′]dipyridin-2-yl)picolinamide] | 0.015 | -10 | -13 |  |  | 
32 | Fc1ccc(-c2ccc3c(n2)[nH]c2cnccc23)cn1 [Example 54, 2-(6-fluoropyridin-3-yl)-9H-pyrrolo[2,3-b:5,4-c′]dipyridine] | 0.019 | 10 | 12 |  |  | 
33 | CNc1ccc(-c2ccc3c(n2)[nH]c2cnccc23)cn1 [Example 55, N-methyl-5-(9H-pyrrolo[2,3-b:5,4-c′]dipyridin-2-yl)pyridin-2-amine] | 0.005 | 6 | 9 |  |  | 
34 | Fc1ccc(-c2ccc3c(n2)[nH]c2ncccc23)cn1 [Example 57, 2-(6-fluoropyridin-3-yl)-9H-pyrrolo[2,3-b:5,4-b′]dipyridine] | 0.013 | 1 | 8 |  |  | 
35 | N-methyl-5-(9H-pyrrolo[2,3-b:4,5-c′]dipyridin-7-yl)picolinamide [Example 60] |  |  |  | −3 | −1 | 0.5
